Experimental data as given in patent US20090192192A1, “INHIBITORS OF BIOFILM FORMATION OF GRAM-POSITIVE AND GRAM-NEGATIVE BACTERIA” (priority 2007, published 2009).

Tested on: Pseudomonas aeruginosa PAO1
Experiment: MBEC assay, biofilm formation of P. aeruginosa PAO1
Assay type: cell-based
Conditions: compound concentration 100 μM, class symbols
Protocol: The compound to be tested was dissolved in DMSO to obtain a concentration that was 100 times that of the final concentration required (1 mM for the 10 μM assay and 10 mM for the 100 μM assay). 1.5 μL of the above solution was placed into each well of a 96 well plate (final volume in each well=150 μL, final DMSO concentration of 1% (v/v)).
To grow the organism and form a biofilm, a cryogenic stock of the test organism (at −70° C.) was used. A first sub-culture was streaked out onto TSA (tryptic soy agar), upon which the plate was incubated at 35±2° C. for 24 hours and stored wrapped in parafilm at 4° C. afterwards. From this first sub-culture, a second sub-culture was streaked out onto TSA. The plate was incubated at 35±2° C. for 24 hours. The second sub-culture was used within 24 hours starting from the time it was first removed from incubation. Using the second sub-culture an inoculum in 3 mL sterile water that matches a 0.5 McFarland Standard (1.5×10^8 cells per mL) was created in a glass test tube using a sterile cotton swab. 2.2 mL of this solution was diluted in 22 mL 100% TSB (tryptic soy broth) medium to a cell density of approximately […]. The diluted organism was inverted 3-5 times to achieve uniform mixing of the organism. One sample (100 μl) of the diluted organism was used for an inoculum check by serially diluting and spot plating on TSA.
To prepare a challenge plate, […] of the diluted organism was added to each well of a 96 well plate except the sterility control wells. The test compounds were added to the wells to make up final concentrations of 10 μM and […] (1.5 μL/well) in the designated location in the test plate. 128.5 μL of 100% universal neutralizer (1% Tween 80 in Cation Adjusted Mueller Hinton Broth, CAMHB) was placed in each of the wells. 130 μL of media was added to the growth control wells. 128.5 μL of media+1.5 μL of DMSO were added to a second set of growth control wells. 150 μL of media was added to the sterility controls. Each sample was run in triplicate. The plate was covered by a lid with a peg per well and wrapped in parafilm and placed on a shaker in a humidified incubator (GeneVac) at 35±+2° C. for 24 hours set at 110 rpm.
Rinse plate(s) of 0.9% saline (200 μL per well) were prepared in a sterile 96 well microtitre plate. Lid-associated pegs were rinsed in 0.9% saline for approximately 1-2 minutes. The peg lid was transferred to the recovery media (1.0% Tween 80 in CAMHB) then sonicated for 30 minutes to dislodge surviving biofilm. Following sonication, 100 μL from each well of the 96 well plate was placed into the first 12 wells of the first row of a 96 well microtiter plate. 180 μl of 0.9% sterile saline was placed in the remaining rows. A serial dilution (10^0-10^7) was prepared by moving 20 μl down each of the 8 rows. 20 μl from each well was removed and spot plated on a prepared TSA. In the remaining recovery plate, 100 μl of fresh growth media (1.0% Tween 80 in CAMHB) was placed in each well to replace the amount removed. The recovery plate was covered with a regular lid and incubated at 35±2° C. for 24 hours and read visually to confirm antimicrobial activity of the test compounds.
The compounds of the present disclosure have been tested regarding their efficiency to inhibit biofilm formation of Staphylococcus aureus U of C#18 (MRSA), Staphylococcus aureus 456 (MRSA), Staphylococcus epidermidis RP62A, and Pseudomonas aeruginosa PAO1.

First: CCCCCCCCCCNC(=O)Nc1ccnn1CC [Example 64, 1-decyl-3-(1-ethylpyrazol-5-yl)urea]
Second: CCCCCCCCCOCC(=O)Nc1ccnn1CC [Example 105, N-(1-ethylpyrazol-5-yl)-2-(nonyloxy)acetamide]
The inhibition at 100 µM of the first is lower: 20 to 50% for the first, greater than 50% for the second.

`CCCCCCCCCCNC(=O)Nc1cc(C2CC2)n[nH]1` [Example 65, 1-(3-cyclopropylpyrazol-5-yl)-3-decylurea] and `CCCCCCCCCCNC(=O)Nc1cc(C2CC2)nn1C` [Example 66, 1-(3-cyclopropyl-1-methylpyrazol-5-yl)-3-decylurea] cannot be ordered by inhibition at 100 µM: greater than 50% for the first, greater than 50% for the second.

First: CCCCCCCCCCNC(=O)Nc1cc(C2CC2)nn1C(C)=O [Example 67, 1-(1-acetyl-3-cyclopropylpyrazol-5-yl)-3-decylurea]
Second: CCCCCCCCCCCNC(=O)Nc1cc(C2CC2)nn1C [Example 80, 1-(3-cyclopropyl-1-methylpyrazol-5-yl)-3-undecylurea]
The inhibition at 100 µM of the first is higher: greater than 50% for the first, 20 to 50% for the second.

`CCCCCCCCCCNC(=O)Nc1cc(C(C)(C)C)n[nH]1` [Example 68, 1-(3-tert-butylpyrazol-5-yl)-3-decylurea] and `CCCCCCCCCCNC(=O)Nc1nc(C(C)(C)C)cs1` [Example 78, 1-(4-tert-butylthiazol-2-yl)-3-decylurea] fall in the same range of inhibition at 100 µM: 20 to 50% for the first, 20 to 50% for the second.

`CCCCCCCCCCNC(=O)N(C)c1cc(C(C)(C)C)nn1C` [Example 69, 1-(3-tert-butyl-1-methylpyrazol-5-yl)-3-decyl-1-methylurea] and `CCCCCCCCCCCNC(=O)Nc1cc(C(C)(C)C)nn1C` [Example 81, 1-(3-tert-butyl-1-methylpyrazol-5-yl)-3-undecylurea] cannot be ordered by inhibition at 100 µM: greater than 50% for the first, greater than 50% for the second.

First: CCCCCCCCCCNC(=O)Nc1cc(C)nn1C(C)(C)C [Example 70, 1-(1-tert-butyl-3-methylpyrazol-5-yl)-3-decylurea]
Second: CCCCCCCCCCCCNC(=O)Nc1cc(C)nn1C [Example 83, 1-(1,3-dimethylpyrazol-5-yl)-3-dodecylurea]
The inhibition at 100 µM of the first is higher: greater than 50% for the first, 20 to 50% for the second.

`CCCCCCCCCCNC(=O)Nc1cc(-c2ccccc2)nn1C` [Example 71, 1-decyl-3-(1-methyl-3-phenylpyrazol-5-yl)urea] and `CCCCCCCCCCCNC(=O)Nc1cc(-c2ccccc2)nn1C` [Example 82, 1-(1-methyl-3-phenylpyrazol-5-yl)-3-undecylurea] cannot be ordered by inhibition at 100 µM: less than 20% for the first, less than 20% for the second.

First: CCCCCCCCCCNC(=O)N(C)c1cc(-c2ccccc2)nn1C [Example 72, 3-decyl-1-methyl-1-(1-methyl-3-phenylpyrazol-5-yl)urea]
Second: CCCCCCCCCCCCNC(=O)Nc1cc(-c2ccccc2)nn1C [Example 86, 1-dodecyl-3-(1-methyl-3-phenylpyrazol-5-yl)urea]
The inhibition at 100 µM of the first is higher: 20 to 50% for the first, less than 20% for the second.

First: CCCCCCCCCCNC(=O)/N=c1/cc(-c2ccccc2)n(C)n1C [Example 73, 1-decyl-3-(1,2-dimethyl-5-phenylpyrazol-3-ylidene)urea]
Second: CCCCCCCCCCNC(=O)Nc1nc(-c2ccccc2)cs1 [Example 79, 1-decyl-3-(4-phenylthiazol-2-yl)urea]
The inhibition at 100 µM of the first is higher: greater than 50% for the first, 20 to 50% for the second.

`CCCCCCCCCCNC(=O)Nc1cc(C)nn1-c1ccccc1` [Example 74, 1-decyl-3-(3-methyl-1-phenylpyrazol-5-yl)urea] and `CCCCCCCCCCNC(=O)Nc1nnc(-c2ccccc2)s1` [Example 77, 1-decyl-3-(5-phenyl-1,3,4-thiadiazol-2-yl)urea] cannot be ordered by inhibition at 100 µM: less than 20% for the first, less than 20% for the second.

First: CCCCCCCCCCNC(=O)Nc1nnc(C2CC2)s1 [Example 75, 1-(5-cyclopropyl-1,3,4-thiadiazol-2-yl)-3-decylurea]
Second: CCCCCCCCCCNC(=O)Nc1nnc(C(C)(C)C)s1 [Example 76, 1-(5-tert-butyl-1,3,4-thiadiazol-2-yl)-3-decylurea]
The inhibition at 100 µM of the first is lower: 20 to 50% for the first, greater than 50% for the second.

`CCCCCCCCCCCCNC(=O)Nc1cc(C2CC2)nn1C` [Example 84, 1-(3-cyclopropyl-1-methylpyrazol-5-yl)-3-dodecylurea] and `CCCCCCCCCCCCCCCCNC(=O)Nc1cc(C2CC2)nn1C` [Example 90, 1-(3-cyclopropyl-1-methylpyrazol-5-yl)-3-hexadecylurea] cannot be ordered by inhibition at 100 µM: less than 20% for the first, less than 20% for the second.

`CCCCCCCCCCCCNC(=O)Nc1cc(C(C)(C)C)nn1C` [Example 85, 1-(3-tert-butyl-1-methylpyrazol-5-yl)-3-dodecylurea] and `CCCCCCCCCCCCCCNC(=O)Nc1cc(C(C)(C)C)nn1C` [Example 88, 1-(3-tert-butyl-1-methylpyrazol-5-yl)-3-tetradecylurea] cannot be ordered by inhibition at 100 µM: greater than 50% for the first, greater than 50% for the second.

`CCCCCCCCCCCCCCNC(=O)Nc1cc(C)nn1C` [Example 87, 1-(1,3-dimethylpyrazol-5-yl)-3-tetradecylurea] and `CCCCCCCCCCCCCCCCNC(=O)Nc1cc(C)nn1C` [Example 89, 1-(1,3-dimethylpyrazol-5-yl)-3-hexadecylurea] cannot be ordered by inhibition at 100 µM: less than 20% for the first, less than 20% for the second.

`CCCCCCCCCCCCCCCCNC(=O)Nc1cc(C(C)(C)C)nn1C` [Example 91, 1-(3-tert-butyl-1-methylpyrazol-5-yl)-3-hexadecylurea] and `CCCCCCCCCCCCCCCCCCNC(=O)Nc1cc(C(C)(C)C)nn1C` [Example 94, 1-(3-tert-butyl-1-methylpyrazol-5-yl)-3-octadecylurea] fall in the same range of inhibition at 100 µM: 20 to 50% for the first, 20 to 50% for the second.

`CCCCCCCCCCCCCCCCCCNC(=O)Nc1cc(C)nn1C` [Example 92, 1-(1,3-dimethylpyrazol-5-yl)-3-octadecylurea] and `CCCCCCCCCCCCCCCCCCNC(=O)Nc1cc(C2CC2)nn1C` [Example 93, 1-(3-cyclopropyl-1-methyrpyrazol-5-yl)-3-octadecylurea] cannot be ordered by inhibition at 100 µM: less than 20% for the first, less than 20% for the second.

Compared with `CCCCCCCCCC(=O)NC(=O)N(C)c1ccc(F)cc1` [Example 95, N-((4-fluorophenyl)(methyl)carbamoyl)decanamide], `CCCCCCCCCOCC(=O)N(C)c1ccc(F)cc1` [Example 102, N-(4-fluorophenyl)-N-methyl-2-(nonyloxy)acetamide] is lower in inhibition at 100 µM: greater than 50% for the first, 20 to 50% for the second.

First: CCCCCCCCCC(=O)NC(=O)Nc1ccccc1C(F)(F)F [Example 96, N-(2-(trifluoromethyl)phenylcarbamoyl)decanamide]
Second: CCCCCCCCCC(=O)NC(=O)N[C@@H](C)c1ccccc1 [Example 97, (S)-N-(1-phenylethylcarbamoyl)decanamide]
The inhibition at 100 µM of the first is lower: less than 20% for the first, 20 to 50% for the second.

`CCCCCCCCCC(=O)NC(=O)N[C@H](C)c1ccccc1` [Example 98, (R)-N-(1-phenylethylcarbamoyl)decanamide] and `CCCCCCCCCOCC(=O)N[C@@H](C)c1ccccc1` [Example 104, (S)-2-(nonyloxy)-N-(1-phenylethyl)acetamide] cannot be ordered by inhibition at 100 µM: greater than 50% for the first, greater than 50% for the second.

`CCCCCCCCCC(=O)NC(=O)Nc1ccnn1C` [Example 99, N-(1-methylpyrazol-5-ylcarbamoyl)decanamide] and `CCCCCCCCCC(=O)NC(=O)Nc1cc(C)nn1C` [Example 100, N-(1,3-dimethylpyrazol-5-ylcarbamoyl)decanamide] fall in the same range of inhibition at 100 µM: 20 to 50% for the first, 20 to 50% for the second.

Compared with `CCCCCCCCCC(=O)NC(=O)Nc1cc(C)ns1` [Example 101, N-(3-methylisothiazol-5-ylcarbamoyl)decanamide], `CCCCCCCCCOCC(=O)Nc1cc(C2CC2)nn1C` [Example 106, N-(3-cyclopropyl-1-methylpyrazol-5-yl)-2-(nonyloxy)acetamide] is higher in inhibition at 100 µM: 20 to 50% for the first, greater than 50% for the second.

First: CCCCCCCCCOCC(=O)Nc1ccc(F)cc1C(F)(F)F [Example 103, N-(4-fluoro-2-(trifluoromethyl)phenyl)-2-(nonyloxy)acetamide]
Second: CCCCCCCCCOCC(=O)Nc1cc(C(C)(C)C)nn1C [Example 107, N-(3-tert-butyl-1-methylpyrazol-5-yl)-2-(nonyloxy)acetamide]
The inhibition at 100 µM of the first is lower: 20 to 50% for the first, greater than 50% for the second.
